The values below come from patent US9206191B2, “Indazoles for the treatment and prophylaxis of respiratory syncytial virus infection” (Hoffmann-La Roche Inc., priority 2012, dated 2015).

One data set relates to RSV Long strain. Briefly: Viral Cytopathic Effect (CPE) Assay. It is filed as cell-based. Conditions: human respiratory syncytial virus, 144 h, cell viability after 6 days, Cell Counting kit-8.
Data set [1] in a line: single dose PK in male ICR mouse (IV and PO). The following applies: male ICR mice; for AUC(0-t) / half-life: mouse, plasma. It is filed as in vivo. The method, then: The single dose PK in male ICR mouse was performed to assess their pharmacokinetic properties. Two groups of animals were dosed via either bolus intravenous (IV) or oral gavage (PO) of the respective compound. The animals for oral administration were fasted overnight prior to dosing and food was resumed 4 hours postdose. Blood samples (approximately 400 μL) were collected via cardiac puncture after euthanasia by carbon dioxide inhalation at 2 min, 5 min, 15 min, 30 min, 1 h, 2 h, 4 h, 6 h, 8 h, and 24 h postdose for IV group, and at 5 min, 15 min, 30 min, 1 h, 2 h, 4 h, 6 h, 8 h, and 24 h postdose for PO group. Blood samples were placed into tubes containing sodium heparin and centrifuged at 8000 rpm for 6 minutes at 4° C. to separate plasma from the samples. Following centrifugation, the resulting plasma was transferred to clean tubes for bioanalysis on LC/MS/MS. The pharmacokinetic parameters were calculated using non-compartmental module of WinNonlin® Professional 5.2.

The next data set concerns RSV. The following applies: Phase III clinical trials; cited from earlier work.
For the next data set, the system named is RSV infection. Conditions: intramuscularly at 15 mg/kg once a month for the duration of RSV season; selected infants; cited from earlier work.

As usually defined, the EC50 is the concentration needed to bring the measured effect to its halfway point. Higher therefore signals lower potency in that assay. As a reminder, the AUC(0-t) is the area under the concentration-time curve up to a stated or last time point. Low readings indicate less exposure, high ones more exposure. The half-life is the time needed for the level to fall by half in the phase considered. A lower half-life goes with rapid decline. In the data set on RSV Long strain, `CS(=O)(=O)c1nn(Cc2nc3cc(Cl)ccc3n2CCC(F)(F)F)c2cnccc12` [Example 2-21, 1-{[5-Chloro-1-(3,3,3-trifluoropropyl)-1H-benzimidazol-2-yl]methyl}-3-(methylsulfonyl)-1H-pyrazolo[3,4-c]pyridine] yielded an EC50 of 19.1 nM. Also, in data set [1] (IV (1.65 mg/Kg)), the CLz is listed as 10.6 mL/min/kg, the AUC(0-t) was found to be 2590 ng·h/mL and the half-life is 2.82 h. In data set [1] (PO (8.27 mg/kg)), this molecule had an F of 37.1%, an AUC(0-t) of 4800 ng·h/mL and a half-life of 3.16 h.

Molecule `CS(=O)(=O)c1nn(Cc2nc3cc(Cl)ccc3n2CC2COC2)c2cnccc12` [Example 2-22, 1-{[5-Chloro-1-(oxetan-3-ylmethyl)-1H-benzimidazol-2-yl]methyl}-3-(methylsulfonyl)-1H-pyrazolo[3,4-c]pyridine] gave an EC50 in the data set with RSV Long strain of 6 nM. For the same molecule, in data set [1] (IV (1 mg/Kg)), the CLz turned out to be 16.9 mL/min/kg, the AUC(0-t) is 976 ng·h/mL and the half-life was 1.55 h. In data set [1] (PO (12.2 mg/kg)), this molecule gave an F of 23.8%, an AUC(0-t) of 2430 ng·h/mL and a half-life of 2.45 h.

As for `CS(=O)(=O)c1nn(Cc2nc3cc(Cl)ccc3n2CCCC(F)(F)F)c2cnccc12` [Example 4-3, 1-{[5-Chloro-1-(4,4,4-trifluorobutyl)-1H-benzimidazol-2-yl]methyl}-3-(methylsulfonyl)-1H-pyrazolo[3,4-c]pyridine], the EC50 in the data set with RSV Long strain was 5 nM. In addition, in data set [1] (IV (2 mg/kg)), the CLz came out at 43.4 mL/min/kg, the AUC(0-t) was determined as 760 ng·h/mL and the half-life was 1.26 h. Besides, in data set [1] (PO (6 mg/kg)), the F is listed as 46.0%, the AUC(0-t) was found to be 1050 ng·h/mL and the half-life was 0.831 h.

`CS(=O)(=O)c1nn(Cc2nc3cc(Cl)ccc3n2[C@H]2C[C@H](CO)C2)c2cnccc12` [Example 11, [trans-3-(5-chloro-2-{[3-(methylsulfonyl)-1H-pyrazolo[3,4-c]pyridin-1-yl]methyl}-1H-benzimidazol-1-yl)cyclobutyl]methanol] came in with an EC50 in the data set on RSV Long strain of 3 nM.

In turn, `CS(=O)(=O)c1nn(Cc2nc3cc(Cl)cc(F)c3n2[C@@H]2CCS(=O)(=O)C2)c2cnccc12` [Example 12, 1-({5-chloro-1-[(3R)-1,1-dioxidotetrahydrothiophen-3-yl]-7-fluoro-1H-benzimidazol-2-yl}methyl)-3-(methylsulfonyl)-1H-pyrazolo[3,4-c]pyridine] displayed an EC50 in the data set with RSV Long strain of 2 nM.

For the molecule `[2H]C([2H])(O)CCn1c(Cn2nc(S(C)(=O)=O)c3ccncc32)nc2cc(Cl)ccc21` [Example 13, 3-(5-chloro-2-{[3-(methylsulfonyl)-1H-pyrazolo[3,4-c]pyridin-1-yl]methyl}-1H-benzimidazol-1-yl)(1,1-^2H2)propan-1-ol], the EC50 with RSV Long strain came out at 3 nM. This EC50 is about 1.5-fold higher than that of the molecule before.

The molecule `CC(O)(CCn1c(Cn2nc(S(C)(=O)=O)c3ccncc32)nc2cc(Cl)ccc21)C(F)(F)F` (centres unmarked) [Example 14, 4-(5-chloro-2-{[3-(methylsulfonyl)-1H-pyrazolo[3,4-c]pyridin-1-yl]methyl}-1H-benzimidazol-1-yl)-1,1,1-trifluoro-2-methylbutan-2-ol] registered an EC50 in the data set on RSV Long strain of 2.8 nM. This EC50 and that of the molecule before are within 1.5-fold of each other.

The molecule `C[C@H](c1nc2cc(Cl)ccc2n1CCC(F)(F)F)n1nc(S(C)(=O)=O)c2ccncc21` [Example 15-1, 1-{(1R)-1-[5-chloro-1-(3,3,3-trifluoropropyl)-1H-benzimidazol-2-yl]ethyl}-3-(methylsulfonyl)-1H-pyrazolo[3,4-c]pyridine] gave an EC50 in the data set with RSV Long strain of 227 nM.

Consider `C[C@@H](c1nc2cc(Cl)ccc2n1CCC(F)(F)F)n1nc(S(C)(=O)=O)c2ccncc21` [Example 15-2, 1-{(1S)-1-[5-Chloro-1-(3,3,3-trifluoropropyl)-1H-benzimidazol-2-yl]ethyl}-3-(methylsulfonyl)-1H-pyrazolo[3,4-c]pyridine], for which, in the data set with RSV Long strain, the response was half-maximal at 68 nM (EC50). Compared with the last molecule, the EC50 is about 3.3-fold lower.

Turning to “motavizumab: A newer version monoclonal antibody, designed as potential replacement of palivizumab”, the benefit over palivizumab entry in the data set with RSV is given as “failed to show additional benefit over palivizumab”.

For “palivizumab: a humanized monoclonal antibody against RSV fusion (F) protein approved for prophylaxis in high-risk infants”, the “reduction of hospitalization rate caused by RSV infection” value in the data set with RSV infection is reported as 45-55%.
